Assay results: patent US20100278896A1, “SOLID COMPOSITIONS” (UCL BUSINESS PLC, priority 2007, published 2010)

Assays:
[1] = Tablet release in flow rig, pH 7.6 aqueous solution, 37° C., flow rate 2 μl/min, HPLC; type: physicochemical
Description: To obtain some indication of release kinetics, flow rigs of 50-200 μl capacity were used to model the bleb. An Ilomastat tablet (one tablet per rig) was placed into the flow chamber. Two tubes are connected to each rig: one was connected to a peristaltic pump to introduce an aqueous solution and the other tube allowed the removal of the solution out of the rig. Flow rates were used to model the flow of the aqueous solution into and out from the subconjunctival space to the scleral veins.
A range of flow rates was used in the rig experiments; however, in most of the experiments a flow rate of 2 μl/min was used to simulate the aqueous flow rate in the bleb. To further simulate the actual conditions in the eye, the aqueous solution used was maintained at pH 7.4-7.6 (as this is the pH of normal human aqueous humor) and the temperature was maintained at 37° C. The aqueous solution that was prepared using Oxoid® Phosphate Buffered Saline Tablets (one tablet for every 100 ml of de-ionized water). The PBS tablets were dissolved in de-ionized water and the pH was adjusted to 7.6. The aqueous solution was kept at 37° C.
The mobile phase was prepared as follows. […] When the pH was adjusted, de-ionized water was added to make the buffer volume of 1000 ml. Aliquots of each sample (0.1 ml) were transferred to HPLC vials that were then placed in the HPLC auto-sampler. […] Three injections (10 μl each) for each time point were evaluated. A computer was connected with the UV detector and with the use of the programme Chrom+, the peak area was analyzed to determine the amount of Ilomastat. […] The average of the three measurements was used to determine the amount of Ilomastat. […]
As indicated above, a tablet of solid 5-FU was fabricated using the same technique as described above. The dissolution rate of the tablet was then determined using the same rig as described above.
Each tablet was placed into the rig as described above and liquid samples analysed by HPLC and concentration of 5-FU was determined using the calibration curve. […]

[2] = test system: Human Tenon's fibroblasts (HTF); settings: cited from earlier work; for contraction of HTF populated collagen gels: dose-dependent, Daniels et al., 2003
[3] = Engalytcheff et al. 2004; cited from earlier work
[4] = Comparison of irradiated and non-irradiated product (gamma radiation, HPLC)
[5] = test system: Human Tenon's fibroblasts (HTF); experiment: Contraction of HTF collagen I gels (in vitro contraction model); type: cell-based; settings: for Contraction (%) of HTF collagen I gels: media without DMSO; for Contraction (%) of HTF collagen I gels, Average / Contraction (%) of HTF collagen I gels, Group 1 / Contraction (%) of HTF collagen I gels, Group 2 / Contraction (%) of HTF collagen I gels, Group 3 / Contraction (%) of HTF collagen I gels, Group 4: 2nd in vitro experiment
Description: Human Tenon's fibroblasts (HTF) were used for in vitro cultures. These cells are involved in subconjunctival scarring. The process of HTF isolation and proliferation was performed by using 0.5 cm^3 tissue explants from donor eyes obtained from Moorfields Hospital Eye Bank under the Tenets of the Declaration of Helsinki (1989). Explants of 0.5 cm^3 were kept for two hours in the bottom of 25 cm^3 flasks, with a coverslip placed over them. Each flask contained 5 ml of normal culture medium consisting of Dulbecco's modified Eagle's Medium (DMEM) with 10% fetal calf serum, 2 mM L-glutamine, 100 U/ml penicillin, […] gentamicin, 100 μg/ml streptomycin and 0.25 μg/ml amphotericin. The flasks were placed in incubators at 37° C. and 5% humidified CO2 in air. The culture medium was changed every 3 days and when they became confluent, usually within one month, they were passaged into new flasks for direct experimental use or were stored in liquid nitrogen.
After the HTFs reached confluence, the culture medium was aspirated and the monolayer was washed with 1 ml of trypsin 1× (Gibco) and the trypsin was quickly aspirated for about 15 seconds. Next, 2 ml of trypsin 1× (Gibco) were added to each flask and HTFs were detached from the flasks by incubation for 2 minutes at 37° C. and 5% humidified CO2 in air. After confirming by phase contrast microscopy using a Leica microscope with ×10 magnification that the cells had been detached from the bottom of the flask and that they had obtained a round shape, 2 ml of cell culture medium were added to neutralise the trypsinisation. The cell suspension was transferred to a 15 ml centrifuge tube (STARLAB GMBH) and was centrifuged at 1600 rpm for 5 minutes. The cell pellet was then resuspended in 10 ml of cell culture medium and was divided into 4 different 75 cm^3 flasks (1:4 expansion). In each flask 7.5 ml of cell culture medium were added. Flasks were placed in incubators at 37° C. and 5% humidified CO2 in air and the culture media was changed every three days. The time that was required from passage to passage in order to reach confluence was 1 week on average.
With a Neubauer plate, 6.2×10^4 HTF were counted and then were resuspended in 170 μl FBS in a 50 ml universal tube. Concentrated medium (160 μl) was added (stock solution consisting of 3.5 ml DMEM (×10 stock), 0.35 ml glutamine (2 mM stock) and 0.9 ml sodium bicarbonate (7.5% stock). 830 μl of First Link type I collagen solution collagen (stock 2.2 mg/ml in 0.6% acetic acid) were then added and the solution was mixed by swirling to avoid air bubbles. Sterile 1M NaOH (75-80 μl) was rapidly added to change the acidic pH of the solution. This caused the solution to turn a pink colour without reverting back to yellow. Quickly 150 μl collagen gel solution was cast into the wells of Mattek dishes making sure to cast the gel to the edges of the central groove using the pipette tip. Creation of air bubbles when ejecting the gel from the tip should be avoided. If air bubbles were formed, they were aspirated out. Usually, from a 1.2 ml gel suspension, 6 gels can easily be cast. Following this process, the wells of Makket dishes with the gels were placed in incubator to set for at least 10-15 min (up to 30 mins). Gels were detached from the edges of the central groove using yellow tips and excess unpolymerised solution was aspirated off. Two milliliters of cell culture medium were added and the dishes were placed in incubators at 37° C. and 5% humidified CO2 in air; the medium was replaced every 3 days.
Generally solid Ilomastat is diluted into DMSO before being added into the media, however in this experiment Ilomastat could be directly dissolved in the normal media without DMSO. […] The concentration of both samples was then confirmed by HPLC.
To compare with irradiated Ilomastat, experiments were conducted with three different treatment groups of collagen gels. Each treatment group had 3 collagen I gels with HTFs. […]

[6] = Dissolution of Ilomastat in pH 7.6 aqueous solution without DMSO; type: physicochemical
Description: The curve was created as follows. […] The stock solution was then diluted in individual containers to give six other solutions with the following concentrations: 80 μM, 60 μM, 40 μM, 20 μM, 10 μM and 5 μM. Each solution was then evaluated three times by HPLC and the absorbance was determined.
A standard tablet punch and die and a press with an applied a pressure of five bars were used.

[7] = test system: rabbit bleb after trabeculectomy; settings: 17 injections in DMSO, 30 days, vs DMSO only control; cited from earlier work

SMILES: O=c1[nH]cc(F)c(=O)[nH]1 [5-FU]
- release period ([1]; excipient-free 5-FU tablets A, B and C averaged): 25 h
- release kinetics ([1]; excipient-free tablets, FIGS. 9 to 13): essentially linear release of drug over a period of many hours

SMILES: CNC(=O)[C@@H](NC(=O)[C@H](CC(C)C)NC(=O)[C@@H](S)CCN1C(=O)N(C)C(C)(C)C1=O)C(C)(C)C [BMS-275291]
- contraction of HTF populated collagen gels [2]: inhibition of the contraction of the gels

SMILES: C[C@H](CS)C(=O)N1CCC[C@H]1C(=O)O [Captopril]
- degradation caused from irradiation [3]: not significant

SMILES: CNC(=O)[C@H](Cc1c[nH]c2ccccc12)NC(=O)[C@@H](CC(=O)NO)CC(C)C [IRRADIATED ILOMASTAT]
- trace products formed after irradiation, compared to total Ilomastat ([4]; 25 kGy gamma radiation, HPLC extra peak): 0.25%
- Contraction (%) of HTF collagen I gels ([5]; DAY 0): 0%
- Contraction (%) of HTF collagen I gels ([5]; DAY 1): 12.51%
- Contraction (%) of HTF collagen I gels ([5]; DAY 2): 23.65%
- Contraction (%) of HTF collagen I gels ([5]; DAY 3): 28.44%
- Contraction (%) of HTF collagen I gels ([5]; DAY 4): 30.8%
- Contraction (%) of HTF collagen I gels ([5]; DAY 5): 32.23%
- Contraction (%) of HTF collagen I gels ([5]; DAY 6): 33.76%
- Contraction (%) of HTF collagen I gels ([5]; DAY 7): 36.12%

SMILES: CNC(=O)[C@H](Cc1c[nH]c2ccccc12)NC(=O)[C@@H](CC(=O)NO)CC(C)C [Ilomastat, N-[(2R)-2-(hydroxamidocarbonylmethyl)-4-methylpentanoyl]-L tryptophan methylamide]
- theoretical maximum dissolution in the aqueous solution [6]: about 100 μM
- concentrations inhibiting in vitro contraction in collagen I gels in a dose dependent manner ([2]; Daniels et al. 2003, WO 95/24921): 10 to 100 nM
- contraction of HTF populated collagen gels [2]: inhibition of the contraction of the gels
- degradation caused by gamma radiation ([4]; 25 KGys dose): not significant
- bleb survival [7]: prolong significantly the bleb survival
- time for which an MMP inhibitory concentration of 10 μM is maintained ([1]; solid dosage form of about 2 to 5 mg): at least 30 days

SMILES: CNC(=O)[C@H](Cc1c[nH]c2ccccc12)NC(=O)[C@@H](CC(=O)NO)CC(C)C [NON IRRADIATED]
- Contraction (%) of HTF collagen I gels ([5]; DAY 0): 0%
- Contraction (%) of HTF collagen I gels ([5]; DAY 1): 11.96%
- Contraction (%) of HTF collagen I gels ([5]; DAY 2): 27.19%
- Contraction (%) of HTF collagen I gels ([5]; DAY 3): 32.97%
- Contraction (%) of HTF collagen I gels ([5]; DAY 4): 39.9%
- Contraction (%) of HTF collagen I gels ([5]; DAY 5): 41.66%
- Contraction (%) of HTF collagen I gels ([5]; DAY 6): 42.03%
- Contraction (%) of HTF collagen I gels ([5]; DAY 7): 43.19%

SMILES: CNC(=O)[C@H](Cc1c[nH]c2ccccc12)NC(=O)[C@@H](CC(=O)NO)CC(C)C [Non-Irradiated Ilomastat with DMSO]
- Contraction (%) of HTF collagen I gels, Average ([5]; Day 1): 19.35%
- Contraction (%) of HTF collagen I gels, Group 1 ([5]; Day 1): 13.03%
- Contraction (%) of HTF collagen I gels, Group 2 ([5]; Day 1): 19.45%
- Contraction (%) of HTF collagen I gels, Group 3 ([5]; Day 1): 20.69%
- Contraction (%) of HTF collagen I gels, Group 4 ([5]; Day 1): 24.23%
- Contraction (%) of HTF collagen I gels, Average ([5]; Day 2): 22.63%
- Contraction (%) of HTF collagen I gels, Group 1 ([5]; Day 2): 19.75%
- Contraction (%) of HTF collagen I gels, Group 2 ([5]; Day 2): 22.77%
- Contraction (%) of HTF collagen I gels, Group 3 ([5]; Day 2): 21.37%
- Contraction (%) of HTF collagen I gels, Group 4 ([5]; Day 2): 26.63%
- Contraction (%) of HTF collagen I gels, Average ([5]; Day 3): 23.325%
- Contraction (%) of HTF collagen I gels, Group 1 ([5]; Day 3): 20.44%
- Contraction (%) of HTF collagen I gels, Group 2 ([5]; Day 3): 24.14%
- Contraction (%) of HTF collagen I gels, Group 3 ([5]; Day 3): 21.55%
- Contraction (%) of HTF collagen I gels, Group 4 ([5]; Day 3): 27.17%
- Contraction (%) of HTF collagen I gels, Average ([5]; Day 4): 24.14%
- Contraction (%) of HTF collagen I gels, Group 1 ([5]; Day 4): 21.15%
- Contraction (%) of HTF collagen I gels, Group 2 ([5]; Day 4): 25.19%
- Contraction (%) of HTF collagen I gels, Group 3 ([5]; Day 4): 22.11%
- Contraction (%) of HTF collagen I gels, Group 4 ([5]; Day 4): 28.11%
- Contraction (%) of HTF collagen I gels, Average ([5]; Day 5): 25.375%
- Contraction (%) of HTF collagen I gels, Group 1 ([5]; Day 5): 23.36%
- Contraction (%) of HTF collagen I gels, Group 2 ([5]; Day 5): 25.33%
- Contraction (%) of HTF collagen I gels, Group 3 ([5]; Day 5): 22.96%
- Contraction (%) of HTF collagen I gels, Group 4 ([5]; Day 5): 29.85%
- Contraction (%) of HTF collagen I gels, Average ([5]; Day 6): 27.6425%
- Contraction (%) of HTF collagen I gels, Group 1 ([5]; Day 6): 24.42%
- Contraction (%) of HTF collagen I gels, Group 2 ([5]; Day 6): 27.9%
- Contraction (%) of HTF collagen I gels, Group 3 ([5]; Day 6): 24.9%
- Contraction (%) of HTF collagen I gels, Group 4 ([5]; Day 6): 33.35%
- Contraction (%) of HTF collagen I gels, Average ([5]; Day 7): 28.2525%
- Contraction (%) of HTF collagen I gels, Group 1 ([5]; Day 7): 25.07%
- Contraction (%) of HTF collagen I gels, Group 2 ([5]; Day 7): 29%
- Contraction (%) of HTF collagen I gels, Group 3 ([5]; Day 7): 24.9%
- Contraction (%) of HTF collagen I gels, Group 4 ([5]; Day 7): 34.04%
